# How the values were obtained:
# [1] = Cytotoxicity against human HepG2 cells incubated for 40 hrs by celltiter-glo luminescent cell viability assay; assay type: toxicity, cell-based
# Escherichia coli = experiment: Antibacterial activity against wild-type Escherichia coli ATCC 25922 assessed as inhibition of bacterial growth incubated for 18 hrs; assay type: functional; conditions: read-out: MIC100
# [2] = Hemolytic activity in human red blood cells at 400 ug/ml incubated for 45 mins by spectrophotometric analysis relative to control; assay type: toxicity, cell-based, Erythrocyte; conditions: red blood cells (erythrocytes), at 400 µg/mL, read-out: Activity
# Klebsiella pneumoniae = experiment: Antibacterial activity against wild-type Klebsiella pneumoniae ATCC 13883 assessed as inhibition of bacterial growth incubated for 18 hrs; assay type: functional; conditions: read-out: MIC100
SMILES,MIC (Escherichia coli) [µg/mL],MIC (Klebsiella pneumoniae) [µg/mL],IC50 at 40 h [1] [µg/mL],"hemolysis at 0.75 h, 400 ug/ml [2] [%]"
CC[C@H](C)[C@@H](NC(=O)[C@@H](NC(=O)[C@H](CCC(=O)O)NC(=O)[C@H](Cc1ccccc1)NC(=O)[C@@H](CCN)NC(=O)[C@H](CCN)NC(=O)[C@H](CO)NC(=O)[C@@H](Cc1c[nH]c2ccccc12)NC(=O)[C@@H](CO)NC(=O)CNC(=O)[C@@H](CCN)NC(=O)[C@@H](C)N)C(C)C)C(=O)N[C@@H](C)C(=O)O,> 64,> 64,131,6.4
CC[C@H](C)[C@@H](NC(=O)[C@@H](NC(=O)[C@H](CCC(=O)O)NC(=O)[C@H](Cc1ccccc1)NC(=O)[C@@H](CCN)NC(=O)[C@H](CCN)NC(=O)[C@H](CO)NC(=O)[C@@H](Cc1c[nH]c2ccccc12)NC(=O)[C@@H](CO)NC(=O)CNC(=O)[C@@H](CCN)NC(=O)[C@H](N)CC(=O)O)C(C)C)C(=O)N[C@@H](C)C(=O)O,> 64,> 64,> 170,0
CC[C@H](C)[C@@H](NC(=O)[C@H](C)NC(=O)[C@H](CCC(=O)O)NC(=O)[C@H](Cc1ccccc1)NC(=O)[C@@H](CCN)NC(=O)[C@H](CCN)NC(=O)[C@H](CO)NC(=O)[C@@H](Cc1c[nH]c2ccccc12)NC(=O)[C@@H](CO)NC(=O)CNC(=O)[C@@H](CCN)NC(=O)[C@H](N)C(C)C)C(=O)N[C@@H](C)C(=O)O,> 64,64,58,0.8
CC[C@H](C)[C@@H](NC(=O)[C@@H](NC(=O)[C@H](CCC(=O)O)NC(=O)[C@H](Cc1ccccc1)NC(=O)[C@@H](CCN)NC(=O)[C@H](CCN)NC(=O)[C@H](CO)NC(=O)[C@@H](C)NC(=O)[C@@H](CO)NC(=O)CNC(=O)[C@@H](CCN)NC(=O)[C@H](N)C(C)C)C(C)C)C(=O)N[C@@H](C)C(=O)O,> 64,> 64,> 170,0
CC[C@H](C)[C@@H](NC(=O)[C@@H](NC(=O)[C@H](CCC(=O)O)NC(=O)[C@H](Cc1ccccc1)NC(=O)[C@@H](CCN)NC(=O)[C@H](CCN)NC(=O)[C@H](CO)NC(=O)[C@@H](Cc1c[nH]c2ccccc12)NC(=O)[C@@H](CO)NC(=O)CNC(=O)[C@@H](C)NC(=O)[C@H](NC(=O)[C@H](C)N)C(C)C)C(C)C)C(=O)N[C@@H](C)C(=O)O,> 64,64,> 170,0.6
CC[C@H](C)[C@@H](NC(=O)[C@@H](NC(=O)[C@H](CCC(=O)O)NC(=O)[C@H](Cc1ccccc1)NC(=O)[C@@H](CCN)NC(=O)[C@H](CCN)NC(=O)[C@H](CO)NC(=O)[C@@H](Cc1c[nH]c2ccccc12)NC(=O)[C@@H](CCN)NC(=O)CNC(=O)[C@@H](CCN)NC(=O)[C@H](N)C(C)C)C(C)C)C(=O)N[C@@H](C)C(=O)O,> 64,> 64,> 170,0
CC[C@H](C)[C@@H](NC(=O)[C@@H](NC(=O)[C@H](CCC(=O)O)NC(=O)[C@H](Cc1ccccc1)NC(=O)[C@@H](CCN)NC(=O)[C@H](CCN)NC(=O)[C@H](CO)NC(=O)[C@@H](Cc1c[nH]c2ccccc12)NC(=O)[C@@H](CO)NC(=O)CNC(=O)[C@@H](C)NC(=O)[C@H](N)C(C)C)C(C)C)C(=O)N[C@@H](C)C(=O)O,> 64,> 64,> 170,0.1
CC[C@H](C)[C@@H](NC(=O)[C@@H](NC(=O)[C@H](CCC(=O)O)NC(=O)[C@H](Cc1ccccc1)NC(=O)[C@@H](CCN)NC(=O)[C@H](CCN)NC(=O)[C@H](CC(=O)O)NC(=O)[C@@H](Cc1c[nH]c2ccccc12)NC(=O)[C@@H](CO)NC(=O)CNC(=O)[C@@H](CCN)NC(=O)[C@H](N)C(C)C)C(C)C)C(=O)N[C@@H](C)C(=O)O,> 64,> 64,> 170,0

# More lines, in order of falling MIC (Escherichia coli), values ahead:
MIC (Escherichia coli) [µg/mL],MIC (Klebsiella pneumoniae) [µg/mL],SMILES,IC50 at 40 h [1] [µg/mL],"hemolysis at 0.75 h, 400 ug/ml [2] [%]"
64,64,CC[C@H](C)[C@@H](NC(=O)[C@@H](NC(=O)[C@H](CC(=O)O)NC(=O)[C@H](Cc1ccccc1)NC(=O)[C@@H](CCN)NC(=O)[C@H](CCN)NC(=O)[C@H](CO)NC(=O)[C@@H](Cc1c[nH]c2ccccc12)NC(=O)[C@@H](CO)NC(=O)CNC(=O)[C@@H](CCN)NC(=O)[C@H](N)C(C)C)C(C)C)C(=O)N[C@@H](C)C(=O)O,> 170,0
64,32,CC[C@H](C)[C@@H](NC(=O)[C@@H](NC(=O)[C@H](CCC(=O)O)NC(=O)[C@H](Cc1ccccc1)NC(=O)[C@@H](CCN)NC(=O)[C@H](CN)NC(=O)[C@H](CO)NC(=O)[C@@H](Cc1c[nH]c2ccccc12)NC(=O)[C@@H](CO)NC(=O)CNC(=O)[C@@H](CCN)NC(=O)[C@H](N)C(C)C)C(C)C)C(=O)N[C@@H](C)C(=O)O,> 170,1.5
32,64,CC[C@H](C)[C@@H](NC(=O)[C@@H](NC(=O)[C@H](CCC(=O)O)NC(=O)[C@H](Cc1ccccc1)NC(=O)[C@@H](CCN)NC(=O)[C@H](CCN)NC(=O)[C@H](CO)NC(=O)[C@@H](Cc1c[nH]c2ccccc12)NC(=O)[C@@H](CO)NC(=O)[C@H](CCN)NC(=O)[C@@H](CCN)NC(=O)[C@H](N)C(C)C)C(C)C)C(=O)N[C@@H](C)C(=O)O,> 170,0.3
32,16,CC[C@H](C)[C@H](NC(=O)[C@H](CCC(=O)O)NC(=O)[C@H](Cc1ccccc1)NC(=O)[C@@H](CCN)NC(=O)[C@H](CCN)NC(=O)[C@H](CO)NC(=O)[C@@H](Cc1c[nH]c2ccccc12)NC(=O)[C@@H](CO)NC(=O)CNC(=O)[C@@H](CCN)NC(=O)[C@H](N)C(C)C)C(=O)N[C@@H](C(=O)N[C@@H](C)C(=O)O)[C@@H](C)CC,> 60,70.6
32,16,CC[C@H](C)[C@@H](NC(=O)[C@@H](NC(=O)[C@H](CCC(=O)O)NC(=O)[C@H](Cc1ccccc1)NC(=O)[C@@H](CCN)NC(=O)[C@H](CCN)NC(=O)[C@H](CO)NC(=O)[C@@H](Cc1c[nH]c2ccccc12)NC(=O)[C@@H](CO)NC(=O)CNC(=O)[C@@H](CCN)NC(=O)[C@H](N)C(C)(C)C)C(C)C)C(=O)N[C@@H](C)C(=O)O,33,13
32,16,CC[C@H](C)[C@@H](NC(=O)[C@@H](NC(=O)[C@H](CCC(=O)O)NC(=O)[C@H](Cc1ccccc1)NC(=O)[C@@H](CCN)NC(=O)[C@H](CCN)NC(=O)[C@H](CO)NC(=O)[C@@H](Cc1c[nH]c2ccccc12)NC(=O)[C@@H](CO)NC(=O)CNC(=O)[C@@H](CCN)NC(=O)[C@H](NC(=O)[C@@H](N)CO)C(C)C)C(C)C)C(=O)N[C@@H](C)C(=O)O,> 170,4.2
16,8,CC[C@H](C)[C@@H](NC(=O)[C@@H](NC(=O)[C@H](CCC(=O)O)NC(=O)[C@H](Cc1c[nH]c2ccccc12)NC(=O)[C@@H](CCN)NC(=O)[C@H](CCN)NC(=O)[C@H](CO)NC(=O)[C@@H](Cc1c[nH]c2ccccc12)NC(=O)[C@@H](CO)NC(=O)CNC(=O)[C@@H](CCN)NC(=O)[C@H](N)C(C)C)C(C)C)C(=O)N[C@@H](C)C(=O)O,> 170,43.7
8,8,CC[C@H](C)[C@@H](NC(=O)[C@@H](NC(=O)[C@H](CCC(=O)O)NC(=O)[C@H](Cc1ccccc1)NC(=O)[C@@H](CCN)NC(=O)[C@H](CCN)NC(=O)[C@H](CO)NC(=O)[C@@H](Cc1c[nH]c2ccccc12)NC(=O)[C@@H](CO)NC(=O)CNC(=O)[C@@H](CCN)NC(=O)[C@H](NC(=O)C(C)(C)N)C(C)C)C(C)C)C(=O)N[C@@H](C)C(=O)O,83,8.5
4,8,CC[C@H](C)[C@@H](NC(=O)[C@@H](NC(=O)[C@H](CCC(=O)O)NC(=O)[C@H](Cc1ccccc1)NC(=O)[C@@H](CCN)NC(=O)[C@H](CCN)NC(=O)[C@H](C)NC(=O)[C@@H](Cc1c[nH]c2ccccc12)NC(=O)[C@@H](CO)NC(=O)CNC(=O)[C@@H](CCN)NC(=O)[C@H](NC(=O)[C@H](C)N)C(C)C)C(C)C)C(=O)N[C@@H](C)C(=O)O,> 170,0
2,2,CC[C@H](C)[C@@H](NC(=O)[C@@H](NC(=O)[C@H](CCC(=O)O)NC(=O)[C@H](Cc1ccccc1)NC(=O)[C@@H](CCN)NC(=O)[C@H](CCN)NC(=O)[C@H](CO)NC(=O)[C@@H](Cc1c[nH]c2ccccc12)NC(=O)[C@@H](CO)NC(=O)CNC(=O)[C@@H](CCN)NC(=O)[C@H](NC(=O)[C@H](C)N)C(C)C)C(C)(C)C)C(=O)N[C@@H](C)C(=O)O,12,82.7
2,1,CC(C)[C@H](NC(=O)[C@H](CCC(=O)O)NC(=O)[C@H](Cc1ccccc1)NC(=O)[C@@H](CCN)NC(=O)[C@H](CCN)NC(=O)[C@H](CO)NC(=O)[C@@H](Cc1c[nH]c2ccccc12)NC(=O)[C@@H](CO)NC(=O)CNC(=O)[C@@H](CCN)NC(=O)[C@H](NC(=O)[C@H](C)N)C(C)C)C(=O)N[C@@H](C(=O)N[C@@H](C)C(=O)O)C(C)(C)C,23,71.2
